# Values quoted from earlier work in patent US20240156825A1, “USE OF SELECTIVE VEGFR2 AND FGFR1 INHIBITORS” (Fountain Therapeutics Inc., priority 2022, published 2024).
# Where two headings read alike, the source gives them in different places.
# Assays:
# any gene target = conditions: next lowest IC50 value to any gene target, read-out: Min IC50_μM, cited from earlier work
# VEGFR2 = VEGFR2 (Homo sapiens, UniProt P35968); conditions: reported IC50 to VEGFR2, read-out: VEGFR2 IC50_μM, cited from earlier work
# VEGFR2, sequence (P35968 20-1356, species assumed): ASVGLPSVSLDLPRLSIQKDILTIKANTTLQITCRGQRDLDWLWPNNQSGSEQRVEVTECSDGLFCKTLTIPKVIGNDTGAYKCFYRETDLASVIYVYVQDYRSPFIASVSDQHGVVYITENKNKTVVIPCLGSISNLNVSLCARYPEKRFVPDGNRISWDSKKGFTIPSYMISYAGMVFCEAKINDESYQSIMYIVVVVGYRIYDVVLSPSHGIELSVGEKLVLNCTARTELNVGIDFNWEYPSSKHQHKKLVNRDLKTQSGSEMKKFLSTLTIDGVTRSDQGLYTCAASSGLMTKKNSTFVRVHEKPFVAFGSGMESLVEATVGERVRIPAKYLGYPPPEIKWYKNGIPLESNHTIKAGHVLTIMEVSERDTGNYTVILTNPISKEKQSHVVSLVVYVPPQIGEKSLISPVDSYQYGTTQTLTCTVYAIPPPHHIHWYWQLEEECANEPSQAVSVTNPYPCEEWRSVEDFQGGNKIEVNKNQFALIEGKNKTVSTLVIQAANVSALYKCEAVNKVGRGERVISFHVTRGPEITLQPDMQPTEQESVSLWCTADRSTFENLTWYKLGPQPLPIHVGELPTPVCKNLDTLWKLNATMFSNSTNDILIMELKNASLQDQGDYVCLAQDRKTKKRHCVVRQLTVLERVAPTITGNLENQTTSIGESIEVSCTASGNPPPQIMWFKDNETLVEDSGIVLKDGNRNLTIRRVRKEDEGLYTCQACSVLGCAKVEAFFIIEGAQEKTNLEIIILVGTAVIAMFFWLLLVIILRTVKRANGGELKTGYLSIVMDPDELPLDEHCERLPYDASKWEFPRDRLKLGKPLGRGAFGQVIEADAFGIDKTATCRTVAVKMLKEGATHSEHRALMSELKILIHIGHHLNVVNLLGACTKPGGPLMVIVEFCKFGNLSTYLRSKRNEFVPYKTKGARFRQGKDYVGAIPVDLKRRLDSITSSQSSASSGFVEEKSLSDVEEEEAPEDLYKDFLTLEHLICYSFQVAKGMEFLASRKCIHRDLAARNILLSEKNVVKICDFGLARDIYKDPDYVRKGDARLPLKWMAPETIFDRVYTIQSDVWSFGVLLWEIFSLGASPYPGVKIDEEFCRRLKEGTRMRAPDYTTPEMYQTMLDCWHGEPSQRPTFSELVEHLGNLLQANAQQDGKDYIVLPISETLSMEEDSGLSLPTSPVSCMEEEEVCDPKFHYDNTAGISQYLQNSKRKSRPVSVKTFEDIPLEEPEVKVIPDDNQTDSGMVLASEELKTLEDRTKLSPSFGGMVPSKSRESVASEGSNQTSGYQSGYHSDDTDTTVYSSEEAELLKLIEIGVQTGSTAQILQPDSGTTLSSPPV
# [1] = Table 3, selective inhibitors of VEGFR2
SMILES,IC50 (any gene target) [nM],IC50 (VEGFR2) [nM],IC50 (any gene target; Table 3) [nM],IC50 (VEGFR2; [1]) [nM]
COc1cc2c(Nc3ccc(Cl)c(Cl)c3)ncnc2cc1OCC1CN(C(=NC#N)N2CCCCC2)CCO1 (stereo not drawn) [compound 57802736],50,50,–,–
CCN1CCOC(COc2cc3ncnc(Nc4ccc(Cl)c(Cl)c4)c3cc2OC)C1 (stereo not drawn) [compound 57802737],50,50,–,–
COc1cc2c(Nc3ccc(Cl)c(Cl)c3)ncnc2cc1OCC1CN(C(N)=NC#N)CCO1 (stereo not drawn) [compound 57802878],–,–,50,50
CN1CCC(COc2ccc3c(Nc4ccc(NC(=O)Nc5cccc(F)c5)cc4)ncnc3c2)CC1 [compound 56835147],9.6,5.5,–,–
CCS(=O)(=O)N1CCOC(COc2cc3ncnc(Nc4ccc(Cl)c(Cl)c4)c3cc2OC)C1 (stereo not drawn) [compound 57802817],–,–,50,50
COc1cc2c(Nc3ccc(Cl)c(Cl)c3)ncnc2cc1OCC1CN(CCCCCC#N)CCO1 (stereo not drawn) [compound 57802611],–,–,50,50
COc1cc2c(Nc3ccc(Br)c(Cl)c3)ncnc2cc1OCC1CN(C)CCO1 (stereo not drawn) [compound 57802766],50,50,–,–
COc1cc(C2=C(c3cn(COc4ccccc4)c4ccccc34)CNC2=O)cc(OC)c1OC [compound 24894997],1700,1500,–,–
COc1cc2c(Nc3ccc(Cl)c(Cl)c3C)ncnc2cc1OCC1CN(C)CCO1 (stereo not drawn) [compound 57802584],–,–,50,50
C[C@@H](Nc1ncnc2[nH]c(-c3ccc(CN4CCN(CCCCCC(=O)NO)CC4)cc3)cc12)c1ccccc1 [compound 24900442],100,100,–,–
COc1cc(C2=C(c3cn(COC(C)C)c4ccccc34)CNC2=O)cc(OC)c1OC [compound 24894996],5300,5200,–,–
Clc1cccc(Nc2cncc(-c3cncc(NCCCn4cncn4)c3)n2)c1 [compound 5330392],153,67,–,–
COc1cc2c(Nc3ccc(Br)cc3F)ncnc2cc1OC[C@H]1CCCN(C)C1 [compound 5329057],40,10,–,–
COc1cc2c(Nc3ccc(Br)c(Cl)c3C)ncnc2cc1OCC1CN(C)CCO1 (stereo not drawn) [compound 57802867],–,–,50,50
CNC(=O)Nc1ccc(CNc2ncsc2C(=O)Nc2ccc3c(c2)OC(F)(F)O3)cn1 [compound 44442418],5,3,–,–
COc1cc2nccc(Oc3ccc4c(C(N)=O)cccc4c3)c2cc1OC [compound 11474276],88,0.891,–,–
CCN(Cc1cc(Nc2nc(C)cn3c(-c4cn[nH]c4)cnc23)sn1)C(C)(C)CO [compound 53317913],–,–,1,1
COc1ccccc1/C(C)=C/c1coc2nc(N)nc(N)c12 [compound 6477203],12800,10300,–,–
COc1cc2c(Nc3ccc(Br)c(Cl)c3Cl)ncnc2cc1OCC1CN(C)C(C)(C)CO1 (stereo not drawn) [compound 57802578],50,50,–,–
COc1cc2c(Nc3ccc(Cl)cc3F)ncnc2cc1OCCCN1CCOCC1 [compound 5329020],50,9,–,–

SMILES,IC50 (any gene target) [nM],IC50 (VEGFR2) [nM],IC50 (any gene target; Table 3) [nM],IC50 (VEGFR2; [1]) [nM]
COc1cc2c(Nc3ccc(Cl)c(Cl)c3F)ncnc2cc1OC[C@@H]1CN2CCC[C@H]2C(=O)N1C [compound 53630920],–,–,50,50
COc1cc2c(Nc3ccc(Cl)c(Cl)c3)ncnc2cc1OCC1CC1 [compound 57802643],50,50,–,–
COc1cc2c(Nc3ccc(Cl)c(Cl)c3)ncnc2cc1OC1C[C@@H]2CN(C)C[C@@H]2C1 (stereo partly drawn) [compound 10253661],–,–,50,50
COc1cc2c(Nc3ccc(Cl)c(Cl)c3)ncnc2cc1OCC1CN(C)C(C)(C)CO1 (stereo not drawn) [compound 57802660],50,50,–,–
c1cnc(NCc2ccncc2)c(-c2nnc(Nc3ccc4c(c3)OCCO4)o2)c1 [compound 44408215],29900,170,–,–
COc1cc2c(Nc3ccc(Cl)c(Cl)c3)ncnc2cc1OC[C@@H]1CN2CCC[C@H]2CO1 [compound 57802678],50,50,–,–
CNc1cc2c(cn1)cc(-c1ccc(F)c(NC(=O)Nc3cc(C(C)(C)C)no3)c1)c(=O)n2[C@H]1CCOC1 [compound 122177477],1,0.46,–,–
COc1cc2c(Nc3cc(Cl)c(Br)cc3F)ncnc2cc1OCC1CN(C)C(C)(C)CO1 (stereo not drawn) [compound 57802776],50,50,–,–
O=C(NCCc1ccc(O)c(Br)c1)/C(Cc1cc(Br)c(O)c(Oc2ccc(CCNC(=O)/C(Cc3cc(Br)c(O)c(-c4cc(C/C(=N\O)C(=O)NCCc5ccc(O)c(Br)c5)cc(Br)c4O)c3)=N/O)cc2Br)c1)=N/O [compound 71524406],–,–,600,600
Nc1c(-c2ccc(F)cc2)c(-c2ccncc2)nn1-c1c(Cl)cc(Cl)cc1Cl [compound 56924694],31,29,–,–
COc1cc2c(Nc3ccc(Cl)c(Cl)c3)ncnc2cc1OCC1CN2CSC[C@H]2CO1 (stereo partly drawn) [compound 57802698],50,50,–,–
COc1cc(O)c2c(c1)CCC[C@H](O)CC(=O)/C=C\C[C@H](C)OC2=O [compound 53324451],7.23,5.8,–,–
COc1cc2c(Nc3ccc(-c4nc5ccccc5s4)cc3)ncnc2cc1OCCCN1CCN(C)CC1 [compound 46225612],14,12,–,–
COc1cc2c(Nc3ccc(Cl)c(Cl)c3F)ncnc2cc1OC[C@H]1CN2CCOC[C@H]2CO1 [compound 10029284],–,–,50,50
COc1cc2c(Nc3cccc(Cl)c3Cl)ncnc2cc1OCC1CN(C(C)=N)CCCO1 (stereo not drawn) [compound 134151034],–,–,50,50
COc1cc2ncnc(Nc3ccc(F)cc3)c2cc1OCCCC(=O)NO [compound 127026070],1340,376,–,–
COc1cc2c(Nc3ccc(Cl)c(Cl)c3)ncnc2cc1OCC1CN(S(C)(=O)=O)CCCO1 (stereo not drawn) [compound 57802556],–,–,50,50
COc1cc2c(Nc3ccc(Cl)c(Cl)c3)ncnc2cc1OCC1CN2CCOCC2CO1 (stereo not drawn) [compound 58013804],–,–,50,50
COc1cc2c(Nc3ccc(C#N)cc3F)ncnc2cc1OC/C=C/CN1CCCC1 [compound 5329040],500,230,–,–
COc1cc2c(Nc3cc(Cl)c(Cl)cc3F)ncnc2cc1OCC1CN(C)C(C)(C)CO1 (stereo not drawn) [compound 57802853],–,–,50,50

SMILES,IC50 (any gene target) [nM],IC50 (VEGFR2) [nM],IC50 (any gene target; Table 3) [nM],IC50 (VEGFR2; [1]) [nM]
O=C(Nc1cccc(-c2cncc3ccccc23)c1)c1ccccc1NCc1ccncc1 [compound 44368815],52,1.16,–,–
COc1cc2c(Nc3ccc(Cl)c(Cl)c3)ncnc2cc1OCc1csc(C2CCN(C)CC2)n1 [compound 57802861],–,–,50,50
C[C@@H](Nc1ncnc2[nH]c(-c3ccc(C(=O)NCCNCCCCCC(=O)NO)cc3)cc12)c1ccccc1 [compound 24900641],100,100,–,–
C[C@@H](Nc1ncnc2[nH]c(-c3ccc(CN4CCN(CCCC(=O)NO)CC4)cc3)cc12)c1ccccc1 [compound 24900378],1000,100,–,–
COc1cc2c(Nc3ccc(Cl)c(Cl)c3)ncnc2cc1OCC1CN(C(C)=O)CCCO1 (stereo not drawn) [compound 57802725],50,50,–,–
COCCNC(=O)c1cccc2cc(Oc3ccnc4cc(OC)c(C(N)=O)cc34)ccc12 [compound 11224593],233,22,–,–
COc1cc2c(Nc3cc(Cl)c(Br)cc3F)ncnc2cc1OCC1COCCN1C (stereo not drawn) [compound 134154844],–,–,50,50
COc1cc2c(Nc3ccc(Cl)cc3F)ncnc2cc1OCCN1CCOCC1 [compound 5329019],300,40,–,–
COc1cc2c(Nc3ccc(Cl)c(Cl)c3F)ncnc2cc1OC[C@@H]1CN(C)CC(=O)N1C [compound 57802574],–,–,50,50
COc1cc2c(Nc3ccc(Cl)c(Cl)c3)ncnc2cc1OCc1nc2c(s1)CNCC2 [compound 53630967],–,–,50,50
COc1cc2c(Nc3ccc(Br)c(Cl)c3Cl)ncnc2cc1OCC1CN(C)CCO1 (stereo not drawn) [compound 57802669],50,50,–,–
CCCCN1CCOC(COc2cc3ncnc(Nc4ccc(Cl)c(Cl)c4)c3cc2OC)C1 (stereo not drawn) [compound 57802833],–,–,50,50
COc1cc2c(Nc3ccc(Br)c(Cl)c3)ncnc2cc1OC1CCN(C)C1 (stereo not drawn) [compound 57802786],50,50,–,–
CC(=O)Nc1ccc2c(c1)C(c1ccccc1Cl)=Nc1cn[nH]c1N2 [compound 136002662],38,33,–,–
COc1cc2c(Nc3ccc(Br)c(Cl)c3Cl)ncnc2cc1OC[C@H]1CN2CCCC[C@H]2CO1 [compound 134150926],–,–,50,50
COC(=O)c1ccc2c(C(=Nc3ccc(N(C)C(=O)Cn4ccnc4)cc3)c3ccccc3)c(O)[nH]c2c1 [compound 135399795],7,6,–,–
COc1cc2c(Nc3ccc(Cl)cc3F)ncnc2cc1OC/C=C/CN1CCCC1 [compound 22478297],–,–,40,40
Cc1[nH]nc2cc(N(C)c3ccnc(Nc4cccc(S(N)(=O)=O)c4)n3)ccc12 [compound 21956341],700,0.6,–,–
COc1cc2c(Nc3cc(Cl)c(Br)cc3F)ncnc2cc1OC[C@@H]1CN2CCC[C@H]2CO1 [compound 66839071],–,–,50,50
O=C1N/C=C/c2ccc(c(Br)c2)Oc2cc(cc(Br)c2O)CCNC(=O)/C(=N/O)Cc2ccc(c(Br)c2)Oc2cc(cc(Br)c2O)C/C1=N\O [compound 10396070],1500,1300,–,–
